Three compounds from patent US6602517B2, “Dietary supplements for treating inflammation-related diseases” (Metagenics, Inc., priority 1999, dated 2003) can be followed below.

The assay is described as follows: ORAC assay (inhibition of peroxyl-radical quenching of β-phycoerythrin fluorescence). In kind it is biochemical. As to conditions: for AUC/μg mean: pure samples (100% by weight); for ORAC units (U): pure samples, normalized to Trolox on a weight basis. From the text:
Method: In order to determine the antioxidant capacity of the subject phytonutrients, the ORAC assay (Cao, G et al., Free Rad. Biol. Med. 14: 303-311[…]) was utilized. This simple procedure relies on the fact that peroxyl radicals will quench the fluorescence of β-phycoerythrin (β-PE) The addition of an antioxidant capable of scavenging these radicals is able to inhibit fluorescence quenching. Fluorescence is monitored as a function of time and the extent of quenching and its inhibition can be determined by calculating the area under the curve (AUC).
A typical reaction will contain 1.67×10^−8 M β-PE in phosphate buffer and 3×10^−3 M 2,2′-azobis(2-amidinopropane)dihydochloride (AAPH) as well as test material. The reaction is initiated by the addition of the peroxyl-radical generating reagent AAPH. […] The difference, or net protection, is equal to AUCsample−AUCblank, and represents the antioxidant capacity of the sample. […] Where one ORAC unit (U) is defined as the net protection provided by 1 nmol/ml Trolox (i.e., 1 μM). […] The final results are normalized to Trolox on a weight basis.
units=(AUC/μg)test/(AUC/μg)trolox.
To generate the data set forth in the present example, samples were prepared in acetonitrile, sometimes with the aid of sonication to facilitate dissolution. One to five μl of sample was added to each 3 ml cuvette, the reaction initiated with AAPH and fluorescence monitored until the quenching was complete. The predicted value for the mixtures was calculated by using the following equation: […]

Consider `COc1cc(/C=C/C(=O)CC(=O)/C=C/c2ccc(O)c(OC)c2)ccc1O` [curcumin], for which the AUC/μg mean is given as 15.93 AUC/μg. Take `O=c1c(O)c(-c2ccc(O)c(O)c2)oc2cc(O)cc(O)c12` [quercetin]: the AUC/μg mean came out at 14.45 AUC/μg and the “ORAC units (U)” value is 1.62 U. In the case of `Cc1c(C)c2c(c(C)c1O)CCC(C)(C(=O)O)O2` (centres unmarked) [Trolox, reference compound], the AUC/μg mean is 8.9 AUC/μg and the “ORAC units (U)” value stood at 1.00 U.
